Assay results: BindingDB's records for doi:10.1016/j.bmc.2006.03.042 (F. Hoffmann-La Roche, 2006)

Legend:
Experiment in all cases: Serine Protease Inhibition Assay
[1] = biological target: Prothrombin (Homo sapiens, UniProt P00734); conditions: pH 7.8; 22 °C
Description: (§1) The enzyme reactions were initiated by the addition of substrate, and the color developed from the release of p-nitroanilide from each chromogenic substrate was monitored continuously for 5 min at 405 nm on a microtiter plate reader. […] The apparent Ki values were then calculated according to the Cheng-Prusoff equation: Ki = IC50/1 + [S]/Km.

[2] = biological target: T1, Serine protease 1 (Bos taurus, UniProt P00760)
T1 sequence (P00760 whole entry): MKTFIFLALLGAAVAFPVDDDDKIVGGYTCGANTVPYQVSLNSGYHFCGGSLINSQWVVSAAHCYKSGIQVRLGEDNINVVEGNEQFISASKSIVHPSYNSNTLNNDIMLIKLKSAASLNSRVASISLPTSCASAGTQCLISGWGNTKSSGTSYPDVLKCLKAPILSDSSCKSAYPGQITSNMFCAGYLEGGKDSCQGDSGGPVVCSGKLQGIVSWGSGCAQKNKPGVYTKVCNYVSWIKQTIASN
Description: as §1

[3] = biological target: T2, Coagulation factor VII (Homo sapiens, UniProt P08709); conditions: pH 7.8; 22 °C
T2 sequence (P08709 whole entry): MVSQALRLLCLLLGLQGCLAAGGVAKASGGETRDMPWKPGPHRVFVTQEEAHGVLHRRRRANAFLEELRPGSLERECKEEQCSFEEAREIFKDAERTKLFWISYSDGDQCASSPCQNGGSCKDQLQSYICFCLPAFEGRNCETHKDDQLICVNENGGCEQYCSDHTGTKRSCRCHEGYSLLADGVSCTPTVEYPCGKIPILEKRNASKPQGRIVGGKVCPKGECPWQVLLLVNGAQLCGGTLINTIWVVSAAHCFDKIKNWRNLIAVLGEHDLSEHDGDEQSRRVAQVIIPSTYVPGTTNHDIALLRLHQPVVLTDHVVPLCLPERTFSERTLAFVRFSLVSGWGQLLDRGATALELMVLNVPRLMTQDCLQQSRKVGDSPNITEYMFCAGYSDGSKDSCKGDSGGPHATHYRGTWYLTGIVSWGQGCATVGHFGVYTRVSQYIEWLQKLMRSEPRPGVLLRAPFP
Description: as §1

[4] = biological target: Coagulation factor X (Homo sapiens, UniProt P00742)
Description: as §1

Coagulation factor X, sequence (P00742 41-179 limits assumed): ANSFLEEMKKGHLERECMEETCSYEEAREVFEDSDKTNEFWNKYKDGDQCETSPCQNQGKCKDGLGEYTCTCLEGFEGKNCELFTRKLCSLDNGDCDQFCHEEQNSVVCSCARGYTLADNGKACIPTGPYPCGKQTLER
Coagulation factor X, sequence (P00742 235-488 limits assumed): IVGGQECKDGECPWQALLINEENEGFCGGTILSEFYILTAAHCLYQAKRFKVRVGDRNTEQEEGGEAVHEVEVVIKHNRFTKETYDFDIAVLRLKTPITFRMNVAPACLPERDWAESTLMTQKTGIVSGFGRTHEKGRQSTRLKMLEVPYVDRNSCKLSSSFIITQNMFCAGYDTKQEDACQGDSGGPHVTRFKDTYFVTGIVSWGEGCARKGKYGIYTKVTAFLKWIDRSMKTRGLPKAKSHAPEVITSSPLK

| Structure (SMILES) | Ki [1] [µM] | Ki [2] [µM] | Ki [3] [µM] | Ki [4] [µM] |
| --- | --- | --- | --- | --- |
| CCOc1cc(OCC)cc(C(Nc2ccc(C(=N)N)cc2)C(=O)O)c1 (stereo not given) [2-[(4-carbamimidoylphenyl)amino]-2-(3,5-diethoxyphenyl)acetic acid] | > 35 | – | – | – |
| COc1ccc(-c2ccc(C(=O)N[C@H](CO)C(C)(C)C)cc2C(=O)O)c(C(=O)Nc2ccc(C(=N)N)cc2)n1 [2-{2-[(4-carbamimidoylphenyl)carbamoyl]-6-methoxypyridin-3-yl}-5-{[(2S)-1-hydroxy-3,3-dimethylbutan-2-yl]carbamoyl}benzoic acid] | 4.3 | 0.24 | 0.01 | 0.15 |
| CCOc1cc(O[C@@H]2CCOC2)c(F)c([C@@H](Nc2ccc(C(=N)N)cc2)C(=O)O)c1 [(2R)-2-[(4-carbamimidoylphenyl)amino]-2-{5-ethoxy-2-fluoro-3-[(3R)-oxolan-3-yloxy]phenyl}acetic acid] | 4.5 | 3.2 | 0.081 | 1.9 |
| CCOc1cc(OC2CCOC2)cc(C(Nc2ccc(C(=N)N)cc2)C(=O)O)c1 (stereo not given) [(4-Carbamimidoyl-phenylamino)-[3-ethoxy-5-(tetra-hydrofuran-3-yloxy)-phenyl]-acetic acid] | 10.7 | > 6.8 | – | 2.9 |

More lines, in order of falling Ki [1], values ahead:

| Ki [1] [µM] | Ki [2] [µM] | Ki [3] [µM] | Ki [4] [µM] | Structure (SMILES) |
| --- | --- | --- | --- | --- |
| 8.8 | 6.8 | 0.2 | 3 | CCOc1cc(OCC)c(F)c(C(Nc2ccc(C(=N)N)cc2)C(=O)O)c1 (racemic) [2-[(4-carbamimidoylphenyl)amino]-2-(3,5-diethoxy-2-fluorophenyl)acetic acid] |
| 7.1 | 3.1 | 0.088 | 1.2 | CCOc1cc(O[C@@H]2CCOC2)c(F)c([C@@H](Nc2ccc(C(=N)N)cc2)C(=O)O)c1 [2-[(4-carbamimidoylphenyl)amino]-2-[5-ethoxy-2-fluoro-3-(oxolan-3-yloxy)phenyl]acetic acid] |
